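Results reflect a 48-hour exposure of cells in 96-well plates to compound at five concentrations. GI50 is the concentration that inhibits growth by half.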 Active and inactive are the calls of the source. Cut-off read from the data, not from the text of the source: active = GI50 up to about 1.1 µM and inactive = higher.
Legend:
Assay in all cases: NCI-60 cell line screen, 48 h
A498 = system: A498
UO-31 = system: UO-31
SK-MEL-5 = system: SK-MEL-5
HCC 2998 = system: HCC 2998
SK-MEL-2 = system: SK-MEL-2
A549 = system: A549
UACC-62 = system: UACC-62
KM12 = system: KM12
HT-29 = system: HT-29
K562 = system: K562
HOP-92 = system: HOP-92
NCI-H460 = system: NCI-H460
OVCAR-4 = system: OVCAR-4
RXF 393 = system: RXF 393
EKVX = system: EKVX
RPMI-8226 = system: RPMI-8226

Measured: GI50

CC12CCC(=O)N1[C@@H](c1ccccc1)[C@@H](c1ccccc1)O2 (stereo partly specified)
inactive: A498 > 100 µM | UO-31 > 100 µM | SK-MEL-5 > 100 µM | HCC 2998 > 100 µM | SK-MEL-2 > 100 µM | A549 > 100 µM | UACC-62 42.5 µM | KM12 > 100 µM | HT-29 > 100 µM | K562 > 100 µM | HOP-92 84.7 µM | NCI-H460 > 100 µM | OVCAR-4 > 100 µM

COc1ccc(C2=NN(c3ccccc3)C[N+](c3ccc(OC)cc3)=N2)cc1
inactive: A498 > 100 µM | UO-31 18.9 µM | SK-MEL-5 14.7 µM | HCC 2998 37.8 µM | RXF 393 26 µM | EKVX 33.8 µM | A549 48 µM | KM12 21.3 µM | RPMI-8226 23.2 µM | HT-29 57.3 µM | K562 19.2 µM | NCI-H460 47.5 µM | OVCAR-4 18.6 µM

COc1ccccc1/C=C1\C(=O)N(C(=O)Cc2ccccc2)N=C1C
inactive: UO-31 > 100 µM | SK-MEL-5 > 100 µM | HCC 2998 > 100 µM | SK-MEL-2 > 100 µM | EKVX > 100 µM | A549 > 100 µM | KM12 > 100 µM | RPMI-8226 > 100 µM | HT-29 > 100 µM | K562 > 100 µM | NCI-H460 > 100 µM | OVCAR-4 > 100 µM

COc1cccc(Cc2c3cc(OC)ccc3cc[n+]2C)c1
inactive: A498 > 100 µM | UO-31 > 100 µM | SK-MEL-5 22.4 µM | HCC 2998 87.9 µM | SK-MEL-2 72.6 µM | EKVX > 100 µM | A549 > 100 µM | KM12 40.5 µM | RPMI-8226 24.7 µM | HT-29 30.3 µM | K562 36 µM | NCI-H460 > 100 µM | OVCAR-4 58.5 µM

COc1cc2c(cc1OC)C(=O)Cc1ccc(OC)c(OC)c1CN(C)CC2
inactive: A498 11.9 µM | UO-31 > 100 µM | SK-MEL-5 > 100 µM | HCC 2998 > 100 µM | SK-MEL-2 > 100 µM | EKVX > 100 µM | A549 > 100 µM | UACC-62 > 100 µM | KM12 > 100 µM | RPMI-8226 > 100 µM | HT-29 > 100 µM | K562 > 100 µM | HOP-92 20.5 µM | NCI-H460 15.6 µM | OVCAR-4 > 100 µM

Cc1cccc(C(C)C)c1N1C(=O)C(=O)C(c2nc3ccccc3o2)C(=O)C1=O
inactive: A498 > 100 µM | UO-31 > 100 µM | SK-MEL-5 60.1 µM | HCC 2998 95.7 µM | SK-MEL-2 > 100 µM | RXF 393 21.4 µM | EKVX 42.7 µM | A549 > 100 µM | UACC-62 61 µM | KM12 > 100 µM | HT-29 56.2 µM | K562 49 µM | HOP-92 > 100 µM | NCI-H460 76.7 µM | OVCAR-4 > 100 µM

C/C=C(\NC(=O)C(CCCCN)NC(=O)C(C)NC(=O)C1CSC(C)C(NC(=O)C2CSCC(NC(=O)C(C)NC(=O)C(N)C(C)CC)C(=O)NC(CCCCN)C(=O)NC(Cc3ccccc3)C(=O)NC(CC(C)C)C(=O)N2)C(=O)N2CCCC2C(=O)NCC(=O)N1)C(=O)NCC(=O)NC1CSCC2NC(=O)C(Cc3ccc(O)cc3)NC(=O)C(CSC=CNC2=O)NC(=O)C(CC(N)=O)NC(=O)C(Cc2ccccc2)NC1=O (stereo unspecified)
inactive: SK-MEL-5 19.6 µM | HCC 2998 > 100 µM | SK-MEL-2 > 100 µM | RXF 393 > 100 µM | EKVX 52.2 µM | A549 > 100 µM | UACC-62 37.6 µM | KM12 66.2 µM | HT-29 > 100 µM | K562 > 100 µM | NCI-H460 75.3 µM | OVCAR-4 > 100 µM

CCOC(=O)[C@H]1Nc2ccccc2C2c3ccccc3CC21 (stereo partly specified)
inactive: A498 24.9 µM | UO-31 68.4 µM | SK-MEL-5 21.8 µM | HCC 2998 48.3 µM | SK-MEL-2 > 100 µM | RXF 393 3.3 µM | A549 78.3 µM | UACC-62 53.3 µM | KM12 71 µM | RPMI-8226 37.9 µM | HT-29 19 µM | K562 38.9 µM | NCI-H460 38.6 µM | OVCAR-4 38.2 µM

O=C1OC(CC(=O)c2ccc(Cl)cc2)C(Cl)=C1Cl (stereo unspecified)
inactive: A498 > 100 µM | UO-31 > 100 µM | SK-MEL-5 > 100 µM | HCC 2998 > 100 µM | SK-MEL-2 > 100 µM | EKVX > 100 µM | A549 > 100 µM | UACC-62 > 100 µM | KM12 > 100 µM | RPMI-8226 46.6 µM | HT-29 > 100 µM | K562 54.6 µM | HOP-92 > 100 µM | NCI-H460 > 100 µM | OVCAR-4 > 100 µM

Cc1nc2ccncc2[nH]1
inactive: A498 > 100 µM | UO-31 > 100 µM | SK-MEL-5 > 100 µM | HCC 2998 > 100 µM | SK-MEL-2 > 100 µM | RXF 393 > 100 µM | EKVX > 100 µM | A549 > 100 µM | UACC-62 > 100 µM | HT-29 > 100 µM | K562 > 100 µM | NCI-H460 > 100 µM | OVCAR-4 > 100 µM

COC1C(CN[N+](=O)CC2OC3OC(C)(C)OC3C2OC)OC2OC(C)(C)OC21 (stereo unspecified)
inactive: A498 > 100 µM | UO-31 > 100 µM | SK-MEL-5 > 100 µM | HCC 2998 > 100 µM | SK-MEL-2 > 100 µM | RXF 393 > 100 µM | EKVX > 100 µM | A549 > 100 µM | UACC-62 > 100 µM | KM12 > 100 µM | HT-29 > 100 µM | K562 > 10 µM | HOP-92 > 100 µM | NCI-H460 > 100 µM | OVCAR-4 > 100 µM

N#Cc1cccc(N2C(=O)c3ccc(C(=O)c4ccc5c(c4)C(=O)N(c4cccc(C#N)c4)C5=O)cc3C2=O)c1
inactive: A498 > 100 µM | UO-31 > 100 µM | SK-MEL-5 > 100 µM | SK-MEL-2 > 100 µM | RXF 393 > 100 µM | EKVX > 100 µM | A549 > 100 µM | UACC-62 > 100 µM | KM12 > 100 µM | RPMI-8226 > 100 µM | HT-29 > 100 µM | K562 > 100 µM | HOP-92 59 µM | NCI-H460 > 100 µM | OVCAR-4 > 100 µM

O=C(Cc1ccccc1)NN1C(=O)C(Cl)C1c1ccc([N+](=O)[O-])cc1 (stereo unspecified)
inactive: UO-31 > 100 µM | SK-MEL-5 49.1 µM | HCC 2998 > 100 µM | SK-MEL-2 > 100 µM | RXF 393 84.9 µM | EKVX > 100 µM | A549 > 100 µM | UACC-62 > 100 µM | KM12 > 100 µM | RPMI-8226 23.5 µM | HT-29 > 100 µM | K562 65.6 µM | NCI-H460 > 100 µM | OVCAR-4 55.6 µM

NC(CCCC(N)P(=O)(O)O)P(=O)(O)O (stereo unspecified)
inactive: A498 > 100 µM | UO-31 > 100 µM | SK-MEL-5 > 100 µM | HCC 2998 > 100 µM | RXF 393 > 100 µM | EKVX > 100 µM | A549 > 100 µM | UACC-62 > 100 µM | KM12 > 100 µM | RPMI-8226 > 100 µM | HT-29 > 100 µM | K562 > 100 µM | HOP-92 64.7 µM | NCI-H460 > 100 µM

COC(=O)NN1C(C)=C(C(=O)OC)C2(CCOC2=O)C1(C)O (stereo unspecified)
inactive: A498 > 100 µM | UO-31 > 100 µM | HCC 2998 > 100 µM | SK-MEL-2 > 100 µM | EKVX > 100 µM | A549 > 100 µM | UACC-62 > 100 µM | KM12 > 100 µM | RPMI-8226 > 100 µM | HT-29 > 100 µM | K562 > 100 µM | HOP-92 > 100 µM | NCI-H460 > 100 µM | OVCAR-4 > 100 µM

COC(=O)c1ccc(CS(=O)(=O)c2ccccc2)cc1
inactive: UO-31 > 100 µM | SK-MEL-5 55.8 µM | HCC 2998 > 100 µM | SK-MEL-2 38.5 µM | RXF 393 > 100 µM | EKVX > 100 µM | A549 67.8 µM | UACC-62 99.8 µM | KM12 51.9 µM | RPMI-8226 > 100 µM | HT-29 40.8 µM | K562 > 100 µM | HOP-92 > 100 µM | NCI-H460 66.1 µM | OVCAR-4 > 100 µM

O=C1CC(O)(c2ccccc2)C(c2ccccc2)=C1c1ccccc1 (stereo unspecified)
inactive: SK-MEL-5 39.6 µM | HCC 2998 57.1 µM | SK-MEL-2 25.5 µM | RXF 393 28.7 µM | EKVX 40.9 µM | A549 39.1 µM | UACC-62 29.5 µM | KM12 37.9 µM | RPMI-8226 20.7 µM | HT-29 42.8 µM | K562 30.5 µM | HOP-92 17.3 µM | NCI-H460 33.2 µM | OVCAR-4 34.1 µM

Nc1nnc(N)n1N
inactive: UO-31 > 100 µM | SK-MEL-5 > 100 µM | HCC 2998 > 100 µM | SK-MEL-2 > 100 µM | RXF 393 > 100 µM | EKVX > 100 µM | A549 > 100 µM | UACC-62 > 100 µM | KM12 > 100 µM | RPMI-8226 > 100 µM | HT-29 > 100 µM | K562 > 100 µM | HOP-92 > 100 µM | NCI-H460 > 100 µM | OVCAR-4 > 100 µM

COc1ccc(/C(=N/NC(N)=O)C2(O)C(=O)Nc3ccc([N+](=O)[O-])cc32)cc1 (stereo unspecified)
inactive: A498 29.2 µM | UO-31 20.5 µM | SK-MEL-5 27.3 µM | HCC 2998 37.3 µM | SK-MEL-2 21.6 µM | EKVX > 100 µM | A549 55.6 µM | UACC-62 20 µM | KM12 22.6 µM | RPMI-8226 25.6 µM | HT-29 19.4 µM | K562 22 µM | HOP-92 22.4 µM | NCI-H460 19.3 µM | OVCAR-4 13.6 µM
